From PubChem BioAssay (NCI)
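Compound exposure: 48 hours, 5 concentrations, 96-well plates. The concentration for 50% growth inhibition is given as GI50. Definition used: TGI = concentration required for complete inhibition of growth.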

Tests used:
Assay in all cases: inhibition of tumour cell growth, NCI panel, 48 h
UACC-257 melanoma = system: UACC-257 melanoma
SF-539 CNS = system: SF-539 CNS
OVCAR-3 ovarian = system: OVCAR-3 ovarian
U251 CNS = system: U251 CNS
NCI-H226 lung = system: NCI-H226 lung
NCI-H23 lung = system: NCI-H23 lung
SK-MEL-28 melanoma = system: SK-MEL-28 melanoma
SK-OV-3 ovarian = system: SK-OV-3 ovarian
LOX IMVI melanoma = system: LOX IMVI melanoma
TK-10 renal = system: TK-10 renal

SMILES | TGI (UACC-257 melanoma) [µM] | TGI (SF-539 CNS) [µM] | TGI (OVCAR-3 ovarian) [µM] | TGI (U251 CNS) [µM] | TGI (NCI-H226 lung) [µM] | TGI (NCI-H23 lung) [µM] | TGI (SK-MEL-28 melanoma) [µM] | TGI (SK-OV-3 ovarian) [µM] | TGI (LOX IMVI melanoma) [µM] | TGI (TK-10 renal) [µM] | GI50 (UACC-257 melanoma) [µM] | GI50 (SF-539 CNS) [µM] | GI50 (OVCAR-3 ovarian) [µM] | GI50 (U251 CNS) [µM] | GI50 (NCI-H226 lung) [µM] | GI50 (NCI-H23 lung) [µM] | GI50 (SK-MEL-28 melanoma) [µM] | GI50 (SK-OV-3 ovarian) [µM] | GI50 (LOX IMVI melanoma) [µM] | GI50 (TK-10 renal) [µM]
O=S(=O)(Nc1ccc2ccc3cccc4ccc1c2c34)c1ccccc1 | > 100 | > 100 | 48.9 | > 100 | > 100 | > 100 | > 100 | > 100 | > 100 | > 100 | – | – | – | – | – | – | – | – | – | –
O=C1c2cccnc2-c2nc(-c3ccccc3)cc3c2c1nc1ccccc13 | 8.08 | 43.3 | > 100 | 19.6 | 24.1 | 7.48 | 29.8 | 25.2 | 32.6 | > 85.2 | 0.835 | 17.8 | 0.31 | 4.09 | 9.39 | 1.73 | 14.8 | 9.58 | 6.37 | 24.3
Nc1ncn([C@@H]2C=C(CO)C(O)C2O)c(=O)n1 (stereo not given in full) | > 100 | > 100 | > 100 | > 100 | > 100 | > 100 | > 100 | > 100 | > 100 | > 100 | – | – | – | – | – | – | – | – | – | –
CCOc1ccc(NC(=O)/C(=C/c2ccccc2)C(C)=O)cc1 | 27.9 | 23.3 | 25.3 | 28.5 | 32.4 | 24.8 | 26 | 40.7 | 25.2 | 32.9 | – | – | – | – | – | – | – | – | – | –
Cc1cc2c(C)nn(Cc3ccc(Cl)cc3Cl)c2c(C#N)c1C | > 100 | > 100 | > 100 | > 100 | > 100 | > 100 | > 100 | > 100 | > 100 | > 100 | – | – | – | – | – | – | – | – | – | –
COc1ccc(C(=O)Nc2ccccc2)cc1[N+](=O)[O-] | > 100 | > 100 | > 100 | > 100 | > 100 | > 100 | > 100 | > 100 | > 100 | > 100 | – | – | – | – | – | – | – | – | – | –
c1ccc(COc2ccc(Nc3ncnc4ccc(-c5ccco5)cc34)cc2)cc1 | 24.4 | > 25 | 12.8 | > 25 | > 21.5 | > 17.9 | > 25 | 8.16 | 8.96 | 16.3 | 7.85 | 8.83 | 5.4 | 6.99 | 5.73 | 5.54 | 9.51 | 0.994 | 4.36 | 3.26
COc1ccc2c(c1)C(=O)/C(=C/c1ccc(OCC(=O)c3ccc(Cl)cc3)cc1)O2 | > 100 | 34.8 | 24.8 | 35.3 | 37.1 | 31.7 | 30.1 | > 100 | 19.8 | 43.4 | > 100 | 17.9 | 12.3 | 15.5 | 12.2 | 11.6 | 15.5 | 62.5 | 5.44 | 26.5
Cn1cc(-c2csc(-c3cn(C)c4ncccc34)n2)c2ccccc21 | > 100 | 0.579 | 1.3 | 13.3 | 26.7 | 20.6 | > 100 | 15.7 | > 100 | 19.4 | 13 | 0.158 | 0.143 | 0.404 | 0.86 | 0.752 | 1.23 | 0.544 | 0.652 | 1
CC(=O)C(CN1CCOCC1)C(c1ccccc1)c1c(O)c2ccccc2oc1=O (stereo not given) | > 100 | > 100 | > 100 | > 100 | > 100 | > 100 | > 100 | > 100 | > 100 | > 100 | – | – | – | – | – | – | – | – | – | –
COC1C2c3ccccc3C(C#N)(Cc3ccc4c(c32)OCO4)N1C(=O)c1ccccc1 (stereo not given) | > 100 | > 100 | > 100 | > 100 | 85.9 | > 100 | > 100 | > 100 | > 100 | > 100 | – | – | – | – | – | – | – | – | – | –
Cn1cccc1C1CC(=O)N(CCC[Se]C#N)C1=O (stereo not given) | 4.73 | 3.66 | 3.99 | 3.48 | 4.3 | 7.88 | 5.96 | 6.72 | 4.28 | 4.06 | 1.95 | 1.96 | 1.92 | 1.72 | 1.62 | 2.6 | 2.24 | 3.22 | 1.88 | 1.79
S=c1nc(/C=C/c2ccc(Cl)c(Cl)c2)[nH][nH]1 | > 100 | > 100 | > 100 | > 100 | > 100 | > 100 | > 100 | > 100 | > 100 | > 100 | – | – | – | – | – | – | – | – | – | –
C[CH2][Sn]([CH2]C)([O]C(=O)c1cc(OC)c(OC)c(OC)c1)[O][Sn]([CH2]C)([CH2]C)[O]C(=O)c1cc(OC)c(OC)c(OC)c1 | 52 | 74.9 | > 100 | 33.1 | 57.9 | 36.5 | 33.4 | > 100 | 33.2 | 33.6 | 21.3 | 27.7 | > 64.4 | 18.2 | 27.3 | 16.7 | 18.4 | > 100 | 18.5 | 18.9
COC(=O)CC(CC(=O)C(=O)OC)C(=O)OC (stereo not given) | > 100 | > 100 | > 100 | > 100 | > 100 | > 100 | > 100 | > 100 | > 100 | > 100 | – | – | – | – | – | – | – | – | – | –
C=C1C(=O)C23C(O)C1CCC2C12CO[C@]3(O)[C@@H](O)C1C(C)(C)CCC2O (stereo not given in full) | 23.8 | 28.2 | 30.3 | 32.2 | 34.9 | 43.4 | 11.4 | 34.5 | 31.4 | 34.3 | – | – | – | – | – | – | – | – | – | –
